How the values were obtained:
Vitis vinifera [1] = experiment: Inhibition of photosynthesis in Vitis vinifera cv. Pinot noir assessed as ratio of apparent quantum yield of photo system 2 to apparent quantum yield yield of CO2 fixation at 30 mM measured 7 days post compound application (reference value: 10 +/- 1.7 no unit); type: organism-based; settings: in vivo, 168 h, 30000 µM
Vitis vinifera [2] = experiment: Inhibition of photosynthesis in Vitis vinifera cv. Pinot noir assessed as intercellular CO2 concentration-saturated net CO2 assimilation rate at 30 mM measured 7 days post compound application (reference value: 11.3 +/- 0.8 umol/m2/s); type: organism-based; settings: in vivo, 168 h, 30000 µM
Vitis vinifera [3] = experiment: Inhibition of photosynthesis in Vitis vinifera cv. Pinot noir assessed as reduction in net photosynthetic rate at 6 mM measured 1 day post compound application; type: organism-based; settings: in vivo, 24 h, 6000 µM
Vitis vinifera [4] = experiment: Effect on […] CO2 level in Vitis vinifera cv. Pinot noir at 1.2 to 30 mM measured 1 day post compound application; type: ADME, organism-based; settings: in vivo, 24 h, 30000 µM
Vitis vinifera [5] = experiment: Inhibition of photosynthesis in Vitis vinifera cv. Pinot noir assessed as increase in mitochondrial respiration in the light at 30 mM measured 7 days post compound application relative to untreated control; type: organism-based; settings: in vivo, 168 h, 30000 µM
Vitis vinifera [6] = experiment: Effect on stomatal conductance in Vitis vinifera cv. Pinot noir at 1.2 to 30 mM measured 1 day post compound application; type: ADME, organism-based; settings: in vivo, 24 h, 30000 µM
Vitis vinifera [7] = experiment: Inhibition of photosynthesis in Vitis vinifera cv. Pinot noir assessed as apparent quantum yield of CO2 fixation at 6 mM measured 7 days post compound application (reference value: 0.07 +/- 0.01 no unit) umol/m2/s); type: organism-based; settings: in vivo, 168 h, 6000 µM
Vitis vinifera [8] = experiment: Inhibition of photosynthesis in Vitis vinifera cv. Pinot noir assessed as dark respiration at 30 mM measured 7 days post compound application (reference value: 1.6 +/- 0.0 umol/m2/s); type: organism-based; settings: in vivo, 168 h, 30000 µM
Vitis vinifera [9] = experiment: Inhibition of photosynthesis in Vitis vinifera cv. Pinot noir assessed as light compensation point at 30 mM measured 7 days post compound application (reference value: 22.6 +/- 3.1 umol/mol); type: organism-based; settings: in vivo, 168 h, 30000 µM
Vitis vinifera [10] = experiment: Inhibition of photosynthesis in Vitis vinifera cv. Pinot noir assessed as CO2 compensation point at 1.2 mM measured 7 days post compound application (reference value: 74.8 +/- 12.7 umol/mol); type: organism-based; settings: in vivo, 168 h, 1200 µM
[11] = Inhibition of photosynthesis in Vitis vinifera cv. Pinot noir assessed as change in light compensation point at 6 mM measured 7 days post compound application; type: organism-based; settings: in vivo
Vitis vinifera [12] = experiment: Inhibition of photosynthesis in Vitis vinifera cv. Pinot noir assessed as PPFD-saturated net CO2 assimilation rate at 1.2 mM measured 7 days post compound application (reference value: 8.9 +/- 1.5 umol/m2/s); type: organism-based; settings: in vivo, 168 h, 1200 µM
Vitis vinifera [13] = experiment: Inhibition of photosynthesis in Vitis vinifera cv. Pinot noir assessed as CO2 compensation point at 30 mM measured 7 days post compound application (reference value: 74.8 +/- 12.7 umol/mol); type: organism-based; settings: in vivo, 168 h, 30000 µM
Vitis vinifera [14] = experiment: Inhibition of photosynthesis in Vitis vinifera cv. Pinot noir assessed as intercellular CO2 concentration-saturated net CO2 assimilation rate at 1.2 mM measured 7 days post compound application (reference value: 11.3 +/- 0.8 umol/m2/s); type: organism-based; settings: in vivo, 168 h, 1200 µM
Vitis vinifera [15] = experiment: Inhibition of photosynthesis in Vitis vinifera cv. Pinot noir assessed as CO2 compensation point at 6 mM measured 7 days post compound application (reference value: 74.8 +/- 12.7 umol/mol); type: organism-based; settings: in vivo, 168 h, 6000 µM
Vitis vinifera [16] = experiment: Inhibition of photosynthesis in Vitis vinifera cv. Pinot noir assessed as PPFD-saturated net CO2 assimilation rate at 30 mM measured 7 days post compound application (reference value: 8.9 +/- 1.5 umol/m2/s); type: organism-based; settings: in vivo, 168 h, 30000 µM
Vitis vinifera [17] = experiment: Inhibition of photosynthesis in Vitis vinifera cv. Pinot noir assessed as mitochondrial respiration in the light at 1.2 mM measured 7 days post compound application (reference value: 3.2 +/- 0.5 umol/m2/s); type: organism-based; settings: in vivo, 168 h, 1200 µM
Vitis vinifera [18] = experiment: Inhibition of photosynthesis in Vitis vinifera cv. Pinot noir assessed as in vivo maximum rate of rubisco carboxylation at 30 mM measured 7 days post compound application (reference value: 42.8 +/- 3.2 umol/m2/s); type: organism-based; settings: 168 h, 30000 µM
Vitis vinifera [19] = experiment: Inhibition of photosynthesis in Vitis vinifera cv. Pinot noir assessed as ratio of apparent quantum yield of photo system 2 to apparent quantum yield yield of CO2 fixation at 1.2 mM measured 7 days post compound application (reference value: 10 +/- 1.7 no unit); type: organism-based; settings: in vivo, 168 h, 1200 µM
Vitis vinifera [20] = experiment: Inhibition of photosynthesis in Vitis vinifera cv. Pinot noir assessed as intercellular CO2 concentration-saturated net CO2 assimilation rate at 6 mM measured 7 days post compound application (reference value: 11.3 +/- 0.8 umol/m2/s); type: organism-based; settings: in vivo, 168 h, 6000 µM
Vitis vinifera [21] = experiment: Inhibition of photosynthesis in Vitis vinifera cv. Pinot noir assessed as dark respiration at 1.2 mM measured 7 days post compound application (reference value: 1.6 +/- 0.0 umol/m2/s); type: organism-based; settings: in vivo, 168 h, 1200 µM
Vitis vinifera [22] = experiment: Inhibition of photosynthesis in Vitis vinifera cv. Pinot noir assessed as dark respiration at 6 mM measured 7 days post compound application (reference value: 1.6 +/- 0.0 umol/m2/s); type: organism-based; settings: in vivo, 168 h, 6000 µM
Vitis vinifera [23] = experiment: Inhibition of photosynthesis in Vitis vinifera cv. Pinot noir assessed as light compensation point at 1.2 mM measured 7 days post compound application (reference value: 22.6 +/- 3.1 umol/mol); type: organism-based; settings: in vivo, 168 h, 1200 µM
Vitis vinifera [24] = experiment: Effect on photochemical quenching in Vitis vinifera cv. Pinot noir at 1.2 to 30 mM measured 7 days post compound application; type: ADME, organism-based; settings: in vivo, 168 h, 30000 µM
Vitis vinifera [25] = experiment: Effect on total nonphotochemical quenching in Vitis vinifera cv. Pinot noir at 1.2 to 30 mM measured 7 days post compound application; type: ADME, organism-based; settings: in vivo, 168 h, 30000 µM
Vitis vinifera [26] = experiment: Inhibition of photosynthesis in Vitis vinifera cv. Pinot noir assessed as in vivo maximum rate of rubisco carboxylation at 6 mM measured 7 days post compound application (reference value: 42.8 +/- 3.2 umol/m2/s); type: organism-based; settings: 168 h, 6000 µM
[27] = Inhibition of photosynthesis in Vitis vinifera cv. Pinot noir assessed as reduction in net photosynthetic rate at 30 mM measured 7 days post compound application; type: organism-based; settings: in vivo

N#Cc1c[nH]cc1-c1cccc2c1OC(F)(F)O2 [FLUDIOXONIL]
Ratio (Vitis vinifera [1]): 19.2 | Activity (Vitis vinifera [2]): 12.2 micromol/m2/s | Activity (Vitis vinifera [3]): Toxic | Activity (Vitis vinifera [4]): Non-toxic | fold change (FC) (Vitis vinifera [5]): 3.5 | Activity (Vitis vinifera [6]): Non-toxic | Activity (Vitis vinifera [7]): 0.04 | Activity (Vitis vinifera [8]): 1.4 micromol/m2/s | Activity (Vitis vinifera [9]): 37 umol/mol | Activity (Vitis vinifera [10]): 84.9 umol/mol | inhibition at 168 h, 6000 µM [11]: 20% | Activity (Vitis vinifera [12]): 7.7 micromol/m2/s | Activity (Vitis vinifera [13]): 267 umol/mol | Activity (Vitis vinifera [14]): 11.3 micromol/m2/s | Activity (Vitis vinifera [15]): 82.2 umol/mol | Activity (Vitis vinifera [16]): 9.4 micromol/m2/s | Activity (Vitis vinifera [17]): 3.2 micromol/m2/s | Activity (Vitis vinifera [18]): 46.7 micromol/m2/s | Ratio (Vitis vinifera [19]): 17.4 | Activity (Vitis vinifera [20]): 11.5 micromol/m2/s | Activity (Vitis vinifera [21]): 0.8 micromol/m2/s | Activity (Vitis vinifera [22]): 1.2 micromol/m2/s | Activity (Vitis vinifera [23]): 19.8 umol/mol | Activity (Vitis vinifera [24]): Non-toxic | Activity (Vitis vinifera [25]): Non-toxic | Activity (Vitis vinifera [26]): 44.1 micromol/m2/s | inhibition at 168 h, 30000 µM [27]: 38%
